Reference: ChEMBL document CHEMBL4613208, “Isatin derivatives and their anti-bacterial activities” (Eur J Med Chem, 2019)
≈ marks a conversion by molar mass, not a printed value.

Assays:
Shigella dysenteriae = assay: Antibacterial activity against Shigella dysenteriae after 24 hrs by agar well diffusion technique; format: functional
Escherichia coli [1] = assay: Antibacterial activity against Escherichia coli ATCC 25922 after 24 hrs by agar well diffusion technique; format: functional; details: ATCC 25922, 24 h
Bacillus cereus = assay: Antibacterial activity against Bacillus cereus after 24 hrs by agar well diffusion technique; format: functional
Staphylococcus aureus [2] = assay: Antibacterial activity against Staphylococcus aureus ATCC 25923 after 24 hrs by agar well diffusion technique; format: functional; details: ATCC 25923, 24 h
Pseudomonas aeruginosa [3] = assay: Antibacterial activity against Pseudomonas aeruginosa by two-fold serial dilution technique; format: functional
Escherichia coli [4] = assay: Antibacterial activity against Escherichia coli by two-fold serial dilution technique; format: functional
Staphylococcus aureus [5] = assay: Antibacterial activity against Staphylococcus aureus by two-fold serial dilution technique; format: functional
Bacillus subtilis [6] = assay: Antibacterial activity against Bacillus subtilis by two-fold serial dilution technique; format: functional
Escherichia coli [7] = assay: Antibacterial activity against Escherichia coli assessed as zone of inhibition at 20 mg/ml; format: functional; details: read-out: IZ
Staphylococcus aureus [8] = assay: Antibacterial activity against Staphylococcus aureus assessed as zone of inhibition at 20 mg/ml; format: functional; details: read-out: IZ
Bacillus subtilis [9] = assay: Antibacterial activity against Bacillus subtilis assessed as zone of inhibition at 20 mg/ml; format: functional; details: read-out: IZ
Pseudomonas aeruginosa [10] = assay: Antibacterial activity against Pseudomonas aeruginosa assessed as zone of inhibition at 20 mg/ml; format: functional; details: read-out: IZ
Pseudomonas aeruginosa [11] = assay: Antibacterial activity against Pseudomonas aeruginosa; format: functional, organism-based
Escherichia coli [12] = assay: Antibacterial activity against Escherichia coli; format: functional, organism-based
Shigella flexneri = assay: Antibacterial activity against Shigella flexneri; format: functional
Citrobacter freundii = assay: Antibacterial activity against Citrobacter freundii; format: functional
Staphylococcus aureus [13] = assay: Antibacterial activity against Staphylococcus aureus; format: functional, organism-based
Klebsiella pneumoniae = assay: Antibacterial activity against Klebsiella pneumoniae; format: functional
[14] = tested on: Staphylococcus epidermidis; assay: Antibacterial activity against Staphylococcus epidermidis; format: functional
Vibrio cholerae = assay: Antibacterial activity against Vibrio cholerae; format: functional
Salmonella typhi = assay: Antibacterial activity against Salmonella typhi; format: functional, Salmonella enterica subsp. enterica serovar Typhi; details: Salmonella enterica
Proteus vulgaris = assay: Antibacterial activity against Proteus vulgaris; format: functional
Bacillus subtilis [15] = assay: Antibacterial activity against Bacillus subtilis; format: functional
Streptococcus pyogenes = assay: Antibacterial activity against Streptococcus pyogenes; format: functional

Cc1ccc2c(c1)/C(=N/c1nc3ccccc3[nH]1)C(=O)N2
MIC (Shigella dysenteriae): 1 to 15 mg/L (≈ 3.62 to 54.3 µM) | MIC (Escherichia coli [1]): 1 to 15 mg/L (≈ 3.62 to 54.3 µM) | MIC (Bacillus cereus): 1 to 15 mg/L (≈ 3.62 to 54.3 µM) | MIC (Staphylococcus aureus [2]): 1 to 15 mg/L (≈ 3.62 to 54.3 µM)

O=C(N/N=C1\C(=O)Nc2ccc(Cl)cc21)N/N=C1\C(=O)Nc2ccc(Cl)cc21
MIC (Pseudomonas aeruginosa [3]): 6.25 to 100 mg/L (≈ 15 to 240 µM) | MIC (Escherichia coli [4]): 6.25 to 100 mg/L (≈ 15 to 240 µM) | MIC (Staphylococcus aureus [5]): 6.25 to 100 mg/L (≈ 15 to 240 µM) | MIC (Bacillus subtilis [6]): 6.25 to 100 mg/L (≈ 15 to 240 µM)

CCOC(=O)CN1C(=O)/C(=C2\SC(=S)N(CC(=O)N(c3oc(NC(C)(C)C)c(C(=O)OC)c3C(=O)OC)C(C)(C)C)C2=O)c2cc(Cl)ccc21
zone of inhibition at 20000 µg/mL (Escherichia coli [7]): 15.6 to 26 mm | zone of inhibition at 20000 µg/mL (Staphylococcus aureus [8]): 15.6 to 26 mm | zone of inhibition at 20000 µg/mL (Bacillus subtilis [9]): 15.6 to 26 mm | zone of inhibition at 20000 µg/mL (Pseudomonas aeruginosa [10]): 15.6 to 26 mm

O=C(N/N=C1\C(=O)Nc2ccc(F)cc21)N/N=C1\C(=O)Nc2ccc(F)cc21
MIC (Pseudomonas aeruginosa [3]): 6.25 to 100 mg/L (≈ 16.3 to 260 µM) | MIC (Escherichia coli [4]): 6.25 to 100 mg/L (≈ 16.3 to 260 µM) | MIC (Staphylococcus aureus [5]): 6.25 to 100 mg/L (≈ 16.3 to 260 µM) | MIC (Bacillus subtilis [6]): 6.25 to 100 mg/L (≈ 16.3 to 260 µM)

Cc1ccc2c(c1)/C(=N/NC(=O)N/N=C1\C(=O)N(Cc3ccccc3)c3ccc(C)cc31)C(=O)N2Cc1ccccc1
MIC (Pseudomonas aeruginosa [3]): 6.25 to 100 mg/L (≈ 11.2 to 180 µM) | MIC (Escherichia coli [4]): 6.25 to 100 mg/L (≈ 11.2 to 180 µM) | MIC (Staphylococcus aureus [5]): 6.25 to 100 mg/L (≈ 11.2 to 180 µM) | MIC (Bacillus subtilis [6]): 6.25 to 100 mg/L (≈ 11.2 to 180 µM)

CCOC(=O)c1c(NC(C)(C)C)oc(N(C(=O)CN2C(=O)/C(=C3/C(=O)N(CO)c4ccccc43)SC2=S)C(C)(C)C)c1C(=O)OCC
zone of inhibition at 20000 µg/mL (Escherichia coli [7]): 15.6 to 26 mm | zone of inhibition at 20000 µg/mL (Staphylococcus aureus [8]): 15.6 to 26 mm | zone of inhibition at 20000 µg/mL (Bacillus subtilis [9]): 15.6 to 26 mm | zone of inhibition at 20000 µg/mL (Pseudomonas aeruginosa [10]): 15.6 to 26 mm

O=C(N/N=C1\C(=O)N(Cc2ccccc2)c2ccc(Cl)cc21)N/N=C1\C(=O)N(Cc2ccccc2)c2ccc(Cl)cc21
MIC (Pseudomonas aeruginosa [3]): 6.25 to 100 mg/L (≈ 10.5 to 167 µM) | MIC (Escherichia coli [4]): 6.25 to 100 mg/L (≈ 10.5 to 167 µM) | MIC (Staphylococcus aureus [5]): 6.25 to 100 mg/L (≈ 10.5 to 167 µM) | MIC (Bacillus subtilis [6]): 6.25 to 100 mg/L (≈ 10.5 to 167 µM)

Cc1cc(NS(=O)(=O)c2ccc(/N=C3\C(=O)Nc4ccc(Cl)cc43)cc2)no1
MIC (Shigella dysenteriae): 1 to 15 mg/L (≈ 2.4 to 36 µM) | MIC (Escherichia coli [1]): 1 to 15 mg/L (≈ 2.4 to 36 µM) | MIC (Bacillus cereus): 1 to 15 mg/L (≈ 2.4 to 36 µM) | MIC (Staphylococcus aureus [2]): 1 to 15 mg/L (≈ 2.4 to 36 µM)

COC(=O)c1c(NC(C)(C)C)oc(N(C(=O)CN2C(=O)/C(=C3/C(=O)N(CC(=O)N(c4oc(NC(C)(C)C)c(C(=O)OC(C)(C)C)c4C(=O)OC(C)(C)C)C(C)(C)C)c4ccccc43)SC2=S)C(C)(C)C)c1C(=O)OC
zone of inhibition at 20000 µg/mL (Escherichia coli [7]): 15.6 to 26 mm | zone of inhibition at 20000 µg/mL (Staphylococcus aureus [8]): 15.6 to 26 mm | zone of inhibition at 20000 µg/mL (Bacillus subtilis [9]): 15.6 to 26 mm | zone of inhibition at 20000 µg/mL (Pseudomonas aeruginosa [10]): 15.6 to 26 mm

O=C1C(=O)N(CN2CCN(c3cc4c(cc3F)c(=O)c(C(=O)O)cn4C3CC3)CC2)c2ccccc21
MIC (Pseudomonas aeruginosa [11]): 0.1 to 0.5 mg/L (≈ 0.204 to 1.02 µM) | MIC (Escherichia coli [12]): 0.1 to 0.5 mg/L (≈ 0.204 to 1.02 µM) | MIC (Shigella flexneri): 0.1 to 0.5 mg/L (≈ 0.204 to 1.02 µM) | MIC (Citrobacter freundii): 0.1 to 0.5 mg/L (≈ 0.204 to 1.02 µM) | MIC (Staphylococcus aureus [13]): 0.1 to 0.5 mg/L (≈ 0.204 to 1.02 µM) | MIC (Klebsiella pneumoniae): 0.1 to 0.5 mg/L (≈ 0.204 to 1.02 µM) | MIC [14]: 0.1 to 0.5 mg/L (≈ 0.204 to 1.02 µM) | MIC (Vibrio cholerae): 0.1 to 0.5 mg/L (≈ 0.204 to 1.02 µM) | MIC (Salmonella typhi): 0.1 to 0.5 mg/L (≈ 0.204 to 1.02 µM)

O=C1Nc2ccc(S(=O)(=O)N3CCOCC3)cc2C1=O
MIC (Shigella flexneri): 0.007 to 0.49 mg/L (≈ 0.0236 to 1.65 µM) | MIC (Proteus vulgaris): 0.007 to 0.49 mg/L (≈ 0.0236 to 1.65 µM) | MIC (Bacillus subtilis [15]): 0.007 to 0.49 mg/L (≈ 0.0236 to 1.65 µM) | MIC (Staphylococcus aureus [13]): 0.007 to 0.49 mg/L (≈ 0.0236 to 1.65 µM) | MIC (Streptococcus pyogenes): 0.007 to 0.49 mg/L (≈ 0.0236 to 1.65 µM) | MIC (Klebsiella pneumoniae): 0.007 to 0.49 mg/L (≈ 0.0236 to 1.65 µM)

COc1cc(/C=N/N2C(N)=NNC23C(=O)Nc2ccc(C)cc23)ccc1O (configuration not stated)
MIC (Shigella dysenteriae): 1 to 15 mg/L (≈ 2.73 to 40.9 µM) | MIC (Escherichia coli [1]): 1 to 15 mg/L (≈ 2.73 to 40.9 µM) | MIC (Bacillus cereus): 1 to 15 mg/L (≈ 2.73 to 40.9 µM) | MIC (Staphylococcus aureus [2]): 1 to 15 mg/L (≈ 2.73 to 40.9 µM)

Cc1cc(NS(=O)(=O)c2ccc(N)cc2)no1 [SULFAMETHOXAZOLE]
MIC (Shigella dysenteriae): 2.5 mg/L (≈ 9.87 µM) | MIC (Escherichia coli [1]): 2.5 mg/L (≈ 9.87 µM) | MIC (Bacillus cereus): 2.5 mg/L (≈ 9.87 µM) | MIC (Staphylococcus aureus [2]): 2.5 mg/L (≈ 9.87 µM)

O=C(N/N=C1\C(=O)Nc2ccc(C(=O)O)cc21)N/N=C1\C(=O)Nc2ccc(C(=O)O)cc21
MIC (Pseudomonas aeruginosa [3]): 6.25 to 100 mg/L (≈ 14.3 to 229 µM) | MIC (Escherichia coli [4]): 6.25 to 100 mg/L (≈ 14.3 to 229 µM) | MIC (Staphylococcus aureus [5]): 6.25 to 100 mg/L (≈ 14.3 to 229 µM) | MIC (Bacillus subtilis [6]): 6.25 to 100 mg/L (≈ 14.3 to 229 µM)

O=C(N/N=C1\C(=O)N(Cc2ccccc2)c2ccccc21)N/N=C1\C(=O)N(Cc2ccccc2)c2ccccc21
MIC (Pseudomonas aeruginosa [3]): 6.25 to 100 mg/L (≈ 11.8 to 189 µM) | MIC (Escherichia coli [4]): 6.25 to 100 mg/L (≈ 11.8 to 189 µM) | MIC (Staphylococcus aureus [5]): 6.25 to 100 mg/L (≈ 11.8 to 189 µM) | MIC (Bacillus subtilis [6]): 6.25 to 100 mg/L (≈ 11.8 to 189 µM)
